Measured values: publication PMC7611705 (Science translational medicine, 2021)
Structures can show the parent of a compound that is named as a salt. Each block holds one compound with its values, some of them ahead of it.

Assays:
A549 cells [1] = test: Caspase activation in A549 cells; assay type: cell-based; conditions: cisplatin 12.5 μM 24 h
A549 cells [2] = test: Western blot of BCL2, cIAP1 and cIAP2 expression in A549 cells; assay type: cell-based; conditions: 24 h
A549 cells [3] = test: Random cell migration / 3D collagen-I invasion of A549 cells; assay type: cell-based; conditions: for cell migration/invasiveness: inhibitors 10 μM
[4] = target: RSK4 N-terminal kinase domain (RSK4-NTKD) (Homo sapiens, UniProt Q9UK32); test: Differential scanning fluorimetry; assay type: binding; conditions: inactive/dephosphorylated (APO) vs fully-active (ATP)
RSK4 [5] = target: T1, RSK4 (Homo sapiens, UniProt Q9UK32); test: biochemical; conditions: for activity in RSK4 HTRF-activation assay (inhibitor or inactive): floxacin family members
cIAP1 and cIAP2 = test: Cellular cIAP1 and cIAP2 expression after levofloxacin; assay type: cell-based; conditions: concentrations achievable from the clinical trial dose
[6] = test system: patients undergoing chemotherapy; test: Retrospective overall survival analysis of the SIGNIFICANT trial; assay type: in vivo, human
RSK4 [7] = target: T1, RSK4; assay type: biochemical
ERK = ERK (Homo sapiens, UniProt P28482); test: ERK activity; assay type: biochemical
RSK1 = RSK1 (Homo sapiens, UniProt Q15418); test: RSK1 activation in cells; assay type: cell-based; conditions: preliminary data
A549-Luc xenograft = test: A549-Luc subcutaneous xenograft in nude mice; assay type: in vivo; conditions: 30 mg/kg daily oral gavage, 14 days
panel of 140 kinases = test: In-vitro activity screen against a panel of 140 kinases; assay type: biochemical; conditions: 10 μM
A549 cells [8] = test: Cisplatin/taxol sensitisation of A549 cells; assay type: cell-based
bladder cancer explants = test: Patient-derived bladder cancer explants; conditions: synergistic in two, additive in one

T1 sequence (Q9UK32 whole entry): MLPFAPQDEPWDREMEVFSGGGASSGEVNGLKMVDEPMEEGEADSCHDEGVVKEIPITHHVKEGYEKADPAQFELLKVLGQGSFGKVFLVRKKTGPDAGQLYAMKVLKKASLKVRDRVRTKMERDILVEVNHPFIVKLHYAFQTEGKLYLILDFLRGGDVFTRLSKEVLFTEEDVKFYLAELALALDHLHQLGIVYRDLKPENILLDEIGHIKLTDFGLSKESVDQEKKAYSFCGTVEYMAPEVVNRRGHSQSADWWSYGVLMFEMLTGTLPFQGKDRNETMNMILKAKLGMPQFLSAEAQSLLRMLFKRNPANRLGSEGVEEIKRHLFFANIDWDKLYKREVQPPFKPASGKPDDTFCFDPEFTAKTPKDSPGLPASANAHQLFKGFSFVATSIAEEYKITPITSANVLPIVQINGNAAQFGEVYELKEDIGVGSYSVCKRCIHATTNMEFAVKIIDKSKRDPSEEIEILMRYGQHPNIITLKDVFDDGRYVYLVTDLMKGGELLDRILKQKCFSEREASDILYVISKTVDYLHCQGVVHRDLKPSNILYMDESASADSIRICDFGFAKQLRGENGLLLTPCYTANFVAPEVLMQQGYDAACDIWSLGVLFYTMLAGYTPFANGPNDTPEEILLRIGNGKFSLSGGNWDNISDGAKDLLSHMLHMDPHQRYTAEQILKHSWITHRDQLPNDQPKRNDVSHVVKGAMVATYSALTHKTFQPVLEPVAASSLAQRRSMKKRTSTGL
RSK4 N-terminal kinase domain (RSK4-NTKD), sequence (Q9UK32 48-349): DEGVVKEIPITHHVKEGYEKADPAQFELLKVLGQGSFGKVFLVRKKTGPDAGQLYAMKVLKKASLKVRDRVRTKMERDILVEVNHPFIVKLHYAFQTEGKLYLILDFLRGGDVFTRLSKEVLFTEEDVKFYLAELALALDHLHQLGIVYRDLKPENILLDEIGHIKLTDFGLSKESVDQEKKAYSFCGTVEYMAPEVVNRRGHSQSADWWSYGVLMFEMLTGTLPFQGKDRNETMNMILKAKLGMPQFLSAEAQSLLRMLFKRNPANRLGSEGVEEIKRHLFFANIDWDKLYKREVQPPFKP
ERK, sequence (P28482 whole entry): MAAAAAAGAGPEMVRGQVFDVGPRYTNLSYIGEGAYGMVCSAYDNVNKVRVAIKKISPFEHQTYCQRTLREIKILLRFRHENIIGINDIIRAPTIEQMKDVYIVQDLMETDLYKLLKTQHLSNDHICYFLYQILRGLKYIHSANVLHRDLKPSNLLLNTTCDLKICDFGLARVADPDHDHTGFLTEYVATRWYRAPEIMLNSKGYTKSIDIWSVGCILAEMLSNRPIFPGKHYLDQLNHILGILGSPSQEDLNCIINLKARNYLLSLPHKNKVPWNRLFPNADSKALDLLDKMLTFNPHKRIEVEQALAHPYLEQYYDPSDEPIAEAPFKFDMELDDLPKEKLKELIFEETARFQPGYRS
RSK1, sequence (Q15418 whole entry): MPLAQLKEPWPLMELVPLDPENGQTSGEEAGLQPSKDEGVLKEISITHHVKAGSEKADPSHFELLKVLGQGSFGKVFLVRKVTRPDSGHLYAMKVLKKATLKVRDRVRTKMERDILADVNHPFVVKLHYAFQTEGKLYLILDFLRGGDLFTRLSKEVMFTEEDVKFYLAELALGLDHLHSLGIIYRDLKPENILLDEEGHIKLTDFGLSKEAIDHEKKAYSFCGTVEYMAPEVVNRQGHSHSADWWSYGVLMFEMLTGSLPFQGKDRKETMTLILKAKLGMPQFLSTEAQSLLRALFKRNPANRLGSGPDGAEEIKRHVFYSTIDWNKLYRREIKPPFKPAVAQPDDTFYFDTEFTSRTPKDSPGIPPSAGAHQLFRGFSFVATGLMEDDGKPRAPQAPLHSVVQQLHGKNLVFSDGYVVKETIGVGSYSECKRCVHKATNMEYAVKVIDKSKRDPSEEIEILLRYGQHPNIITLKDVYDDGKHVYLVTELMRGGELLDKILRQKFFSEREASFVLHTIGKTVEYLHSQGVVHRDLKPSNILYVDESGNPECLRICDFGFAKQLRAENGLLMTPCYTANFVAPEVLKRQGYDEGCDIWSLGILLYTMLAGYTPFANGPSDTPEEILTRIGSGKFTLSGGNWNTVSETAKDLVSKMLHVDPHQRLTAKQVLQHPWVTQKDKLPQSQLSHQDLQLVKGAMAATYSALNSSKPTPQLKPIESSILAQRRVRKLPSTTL

Compound: CC(C)CCN1c2nc(Nc3cc(F)c(O)c(F)c3)ncc2N(C)C(=O)C1C (centres unmarked) [BI-D1870]
caspase activation in response to cisplatin (A549 cells [1]): failed to promote cisplatin-induced caspase activation
expression of BCL2 and cIAP1/2 (A549 cells [2]): an effect not seen

Compound: CC(=O)O[C@@H]1[C@@H](OC(C)=O)[C@@H](O)[C@H](Oc2c(-c3ccc(O)cc3)oc3cc(O)cc(O)c3c2=O)O[C@H]1C [SL-0101]
invasiveness of A549 cells with pan-RSK inhibitor (A549 cells [3]): promotes lung cancer invasiveness

Compound: O=C(O)c1cn(C2CC2)c2cc(N3CCNCC3)c(F)cc2c1=O [ciprofloxacin]
cell migration/invasiveness (A549 cells [3]): did not impair cell invasiveness
binding to RSK4-NTKD [4]: failed to bind RSK4
expression of BCL2 and cIAP1/2 (A549 cells [2]): an effect not seen

Compound: CN1C[C@@H]2C[C@H]1CN2c1cc2c(cc1F)c(=O)c(C(=O)O)cn2C1CC1 [danofloxacin]
cell migration/invasiveness (A549 cells [3]): did not impair cell invasiveness
activity in RSK4 HTRF-activation assay (inhibitor or inactive) (RSK4 [5]): inactive analogues

Compound: C[C@H]1COc2c(N3CCN(C)CC3)c(F)cc3c(=O)c(C(=O)O)cn1c23 [levofloxacin]
activity in RSK4 HTRF-activation assay (inhibitor or inactive) (RSK4 [5]): inhibited RSK4 activation
cellular cIAP1 and cIAP2 expression (cIAP1 and cIAP2): decreased cellular cIAP1 and cIAP2 expression
hazard ratio for overall survival vs placebo ([6]; adherent patients (n=937), 95% CI 0.69-0.999, p=0.048): 0.83
hazard ratio in lung and bladder cancer patients compared to the entire cohort ([6]; lung and bladder cancer patients): further improved
hazard ratio for overall survival vs placebo ([6]; non-adherent patients (n=543), 95% CI 0.89-1.40, p=0.36): 1.11
median overall survival ([6]; patients adhering to trial treatment (n=937)): 72 months

More lines, main results first:

activity in RSK4 HTRF-activation assay (inhibitor or inactive) (RSK4 [5]): additional inhibitors
Compound: CN1CCN(c2c(F)cc3c(=O)c(C(=O)O)cn4c3c2OCN4C)CC1 [marbofloxacin]

α (non-competitive binding to Enzyme and Enzyme-Substrate state) (RSK4 [7]): 1
effect on ATP Km and Vmax of RSK4 (RSK4 [7]; sub-maximal inhibition): maintained Km and displayed reduced Vmax
IC50 (RSK4 [5]): 6.2 µM
selectivity RSK4 vs RSK1 (RSK4 [5]): favoured RSK4 over RSK1
inhibition at 30 µM (RSK4 [5]; read-out: inhibition of RSK4 activation): > 75%
effect on ERK activity (ERK): did not interfere with ERK activity
Compound: COc1c(N2C[C@@H]3CCCN[C@@H]3C2)c(F)cc2c(=O)c(C(=O)O)cn(C3CC3)c12 [moxifloxacin]
cell migration/invasiveness (A549 cells [3]): shared this ability
mode of inhibition of RSK4 activation (RSK4 [5]): non-ATP competitive reversible inhibitor of RSK4 activation
preference RSK4 activation vs fully-active RSK4 (RSK4 [5]): preference for preventing RSK4 activation rather than inhibiting fully-active RSK4

activity in RSK4 HTRF-activation assay (inhibitor or inactive) (RSK4 [5]): inactive analogues
Compound: CCn1cc(C(=O)O)c(=O)c2cnc(N3CCCC3)nc21 [piromidic acid]

activity in RSK4 HTRF-activation assay (inhibitor or inactive) (RSK4 [5]): additional inhibitors
Compound: CN1CCN(c2c(F)cc3c(=O)c(C(=O)O)cn4c3c2SCC4)CC1 [rufloxacin]

activity in RSK4 HTRF-activation assay (inhibitor or inactive) (RSK4 [5]): additional inhibitors
Compound: NC1CCN(c2nc3c(cc2F)c(=O)c(C(=O)O)cn3-c2ccc(F)cc2F)C1 (centres unmarked) [tosufloxacin, tosufloxacin tosylate]
cell migration/invasiveness (A549 cells [3]): shared this ability

IC50 (RSK4 [5]): 10 µM
activity in RSK4 HTRF-activation assay (inhibitor or inactive) (RSK4 [5]): additional inhibitors
Compound: N[C@@H]1[C@H]2CN(c3nc4c(cc3F)c(=O)c(C(=O)O)cn4-c3ccc(F)cc3F)C[C@@H]12 [trovafloxacin]
cell migration/invasiveness (A549 cells [3]): reproduced the inhibition of cell migration/invasiveness
activation of RSK1 in cells (RSK1): does not inhibit the activation of RSK1 in cells
tumour growth vs vehicle-only (A549-Luc xenograft): significantly (p<0.05) decreased tumour growth
caspase activation in response to cisplatin (A549 cells [1]): promotion of caspase activation
binding to RSK4-NTKD [4]: bound the inactive/dephosphorylated, but not the fully-active
inhibition of other kinases (panel of 140 kinases): No other kinase was substantially inhibited
sensitisation of A549 cells to cisplatin (A549 cells [8]; 7.5 μM, cisplatin 12.5 μM for 72 h): reducing the IC50 for cisplatin
concentration giving maximal potentiation of cisplatin or taxol effects (A549 cells [8]; A549 cells): ≈ 10 μM
nature of the relationship with cisplatin (A549 cells [8]; A549 cells): synergistic
expression of BCL2 and cIAP1/2 (A549 cells [2]): decreased expression of BCL2 and cIAP1/2
benefit of combination with cisplatin in explants (bladder cancer explants): beneficial in 3 out of 4 patient-derived bladder cancer explants
